The values that follow come from patent US11008622B2, “Biomarker for predicting sensitivity to EGFR-targeting agent, and use thereof” (THE ASAN FOUNDATION, priority 2014, dated 2021).

In one data set the test system is FZD4 and GPR101 genes. Put plainly: Real-time PCR of EGFR transactivation-related genes after RON inhibition. Format: cell-based, human. The note with it: KM12C, RON siRNA 48 hours; FIG. 1E. How it is done: In order to perform the RT-PCR, Colo320HSR colon cancer cell line in which the RON was non-expressed was transfected with construct expressing the RONΔ160 as the RON active type form for 48 hours and KM12C colon cancer cell line in which the RON was activated was transfected with the RON siRNA for 48 hours. The RNA was extracted by using trizol (Cat.#15596-026, Life Technologies™), respectively. The extracted RNA was synthesized to cDNA by using a RT-PCR Kit (AccuPower RT PreMix, Bioneer). The difference in expression of the corresponding gene was verified by PCR (AccuPower PCRPreMix, Bioneer) by using the synthesized cDNA and a gene-specific primer and quantified by using a real-time PCR (LightCycler 480 SYBR Green, Roche).
The inventors analyzed the expression of the genes Adam11, Adam32, FZD4, GPER, and GPR101 associated with the EGFR transactivation with real-time PCR after artificially suppressing the RON activity by using an siRNA technique in the KM12C colon cancer cell line in which the RON was activated, in order to analyze the change aspect of the expression of the EGFR transactivation-related genes according to the RON inhibition.
In general terms: Quantitative PCR measures a nucleic acid by following its amplification.

A further data set deals with EGFR. Briefly: EGFR phosphorylation by western blot after RON inhibition by siRNA. It counts as cell-based, human. How it is done:
In order to perform the western blot, a protein separated from each cell was separated through SDS-PAGE and transferred to polyscreen membranes (New England Nuclear, Boston, Mass., USA), reacted for 12 hours at 4° C. by using various antibodies (anti-phospho RON (MyBioSource, San Diego, Calif., USA), anti-phospho Tyrosine, anti-EGFR, anti-phospho EGFR (Cell signaling Technology, Beverly, Mass., USA), anti-RON, and anti-r-tubulin (Santa Cruz Biotechnology), and then washed with a 1×TBS-T buffer solution for 10 minutes three times. A suitable anti-rabbit-HRP or anti-mouse-HRP secondary antibody reacted for 2 hours at room temperature and was washed with the 1×TB S-T buffer solution for 10 minutes three times to verify the expression of the protein by using an ECL solution (Amersham, Buckinghamshire, UK).
The inventors verified the phosphorylation induction of the EGFR by performing the western blot, after artificially suppressing the RON by using a siRNA technique in the KM12C and HT29 colon cancer cell lines in which the RON was expressed and activated, in order to verify the change in activity of the EGFR protein by the activation of the RON protein. […]
(In general: A western blot detects proteins with antibodies after separation by electrophoresis.)

On to “5′-ACUUUGUAGAGGAGUUUGAUU-3′ (listed as RNA, chemistry not given here) [RON siRNA]”, for which, in the data set with FZD4 and GPR101 genes, the FZD4 gene expression entry is recorded as “significantly reduced” and the GPR101 gene expression entry is recorded as “significantly reduced”. The “activity of the EGFR (phosphorylation)” value with EGFR (KM12C and HT29 colon cancer cell lines, FIG. 2B) is “decreased”. For the same substance, the “phosphorylation of the EGFR induced by the EGF” value with EGFR (KM12C, by EGF ligand treating time, FIG. 2C) is listed as “decreased”.
